# Measurements published in patent US12673954B2 (BRISTOL-MYERS SQUIBB COMPANY, priority 2021, dated 2026).
# Where two headings read alike, the source gives them in different places.
# Legend:
# [1] = system: NF-κB pathway, THP1-Dual™ cells; experiment: STING reporter assay in THP1-Dual cells, NF-κB pathway (SEAP, QUANTI-Blue); format: cell-based, human; conditions: read-out: NFkB (EC50 μM)
# Procedure, shortened: (§1)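 Activation normalised between DMSO-only baseline and 100 μM cGAMP maximum, after 20 h compound exposure (starting at 100 μM final) at 37° C, 5% CO2. Supernatant SEAP (QUANTI-Blue, OD620) reports NF-κB; secreted luciferase (QUANTI-Luc, RLU at 5 min) reports IRF.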
# [2] = system: IRF pathway, THP1-Dual™ cells; experiment: STING reporter assay in THP1-Dual cells, IRF pathway (Lucia luciferase, QUANTI-Luc); format: cell-based, human; conditions: read-out: IRF (EC50 μM)
# Procedure, shortened: as §1
# [3] = Homo sapiens, THP1-Dual, 20 h, THP1-Dual cells, 10% human plasma, 20 hours, SEAP, 100% activation = 100 μM cGAMP
# [4] = Homo sapiens, THP1-Dual, 20 h, THP1-Dual cells, 10% human plasma, 20 hours, Lucia luciferase, 100% activation = 100 μM cGAMP
# [5] = THP1-Dual cells, 10% human plasma, 20 hours, SEAP, 100% activation = 100 μM cGAMP
# [6] = THP1-Dual cells, 10% human plasma, 20 hours, Lucia luciferase, 100% activation = 100 μM cGAMP
SMILES,"EC50 [1, 3]","EC50 [2, 4]",further results
"COC(=O)c1cc(C)cc2c(C)c(CNC(=O)c3cnn4cccnc34)oc12 [EXAMPLE 122, Methyl 3,5-dimethyl-2-((pyrazolo[1,5-a]pyrimidine-3-carboxamido)methyl)benzofuran-7-carboxylate]",0.54 µM,0.53 µM,
"COC(=O)c1cc(Cl)cc2cc(CN3CCc4ccncc4C3=O)oc12 [Example 77, Methyl 5-chloro-2-((1-oxo-3,4-dihydro-2,7-naphthyridin-2(1H)-yl)methyl)benzofuran-7-carboxylate]",6.3 µM,5.5 µM,
"COC(=O)c1ccc(F)c2cc(CNC(=O)c3cnn4cccnc34)oc12 [EXAMPLE 23, methyl 4-fluoro-2-((pyrazolo[1,5-a]pyrimidine-3-carboxamido)methyl)-benzofuran-7-carboxylate]",1.8 µM,2 µM,
"COC(=O)c1cc(Cl)cc2cc(CNC(=O)c3cnn4ccc(OC)nc34)oc12 [Example 51, Methyl 5-chloro-2-((5-methoxypyrazolo[1,5-a]pyrimidine-3-carboxamido)methyl) benzofuran-7-carboxylate]",,,"EC50 [1, 5]: 3.1 µM; EC50 [2, 6]: 4 µM"
"CSC(=O)c1cc(F)cc2cc([C@H](C)NC(=O)c3cnn4cccnc34)oc12 [EXAMPLE 399, S-Methyl (S)-5-fluoro-2-(1-(pyrazolo[1,5-a]pyrimidine-3-carboxamido)ethyl)benzofuran-7-carbothioate]",1.5 µM,1.3 µM,
"Cc1cc(C(=O)SCC(F)(F)F)c2oc(CNC(=O)c3cnn4cccnc34)cc2c1 [EXAMPLE 389, S-(2,2,2-Trifluoroethyl) 5-methyl-2-((pyrazolo[1,5-a]pyrimidine-3-carboxamido)methyl)benzofuran-7-carbothioate]",0.56 µM,0.58 µM,
"Cc1cc(C(=O)O[C@@H](C)C(F)(F)F)c2oc(CNC(=O)c3cnn4cccnc34)c(Cl)c2c1 [EXAMPLE 301, (S)-1,1,1-Trifluoropropan-2-yl 3-chloro-5-methyl-2-((pyrazolo[1,5-a]pyrimidine-3-carboxamido)methyl)benzofuran-7-carboxylate]",2.7 µM,2.1 µM,
"O=C(OCC(F)(F)C(F)(F)C(F)(F)CO)c1cc(Cl)cc2cc(CNC(=O)c3cnn4cccnc34)oc12 [EXAMPLE 253, 2,2,3,3,4,4-Hexafluoro-5-hydroxypentyl 5-chloro-2-((pyrazolo[1,5-a]pyrimidine-3-carboxamido)methyl)benzofuran-7-carboxylate]",,,"EC50 ([1]; Homo sapiens, THP1-Dual, 20 h): 0.93 µM; EC50 ([2]; Homo sapiens, THP1-Dual, 20 h): 0.96 µM"
"O=C(OCCCCO)c1cc(Cl)cc2cc(CNC(=O)c3cnn4cccnc34)oc12 [EXAMPLE 250, 4-Hydroxybutyl 5-chloro-2-((pyrazolo[1,5-a]pyrimidine-3-carboxamido)methyl)benzofuran-7-carboxylate]",0.62 µM,1.2 µM,
"CSC(=O)c1cc(F)cc2c(Cl)c(CNC(=O)c3cnn4cccnc34)oc12 [EXAMPLE 393, S-Methyl 3-chloro-5-fluoro-2-((pyrazolo[1,5-a]pyrimidine-3-carboxamido)methyl)benzofuran-7-carbothioate]",0.3 µM,0.39 µM,
"COC(=O)c1cc(Cl)cc2cc(Cn3cnc4ccncc4c3=O)oc12 [Example 76, Methyl 5-chloro-2-((4-oxopyrido[4,3-d]pyrimidin-3(4H)-yl)methyl)benzofuran-7-carboxylate]",4.1 µM,3 µM,
"O=C(NCC(F)(F)F)c1cc(Cl)cc2cc(CNC(=O)c3cnn4cccnc34)oc12 [EXAMPLE 403, N-((5-Chloro-7-((2,2,2-trifluoroethyl)carbamoyl)benzofuran-2-yl)methyl)pyrazolo[1,5-a]pyrimidine-3-carboxamide]",97 µM,> 100 µM,
"COC(OC(=O)c1cc(Cl)cc2cc(CNC(=O)c3cnn4cccnc34)oc12)C(F)(F)F (single isomer, unassigned) [EXAMPLE 332, 2,2,2-Trifluoro-1-methoxyethyl 5-chloro-2-((pyrazolo[1,5-a]pyrimidine-3-carboxamido)methyl)benzofuran-7-carboxylate]",,,"EC50 [1, 5]: 1.1 µM; EC50 [2, 6]: 1.1 µM"
"Cc1cc(C(=O)OC(C)C)c2oc(CNC(=O)c3cnn4cccnc34)cc2c1 [EXAMPLE 273, Isopropyl 5-methyl-2-((pyrazolo[1,5-a]pyrimidine-3-carboxamido)methyl)-benzofuran-7-carboxylate]",0.75 µM,0.7 µM,
"COC(=O)c1cccc2cc(CNC(=O)c3cnccn3)oc12 [EXAMPLE 8, Methyl 2-((pyrazine-2-carboxamido)methyl)benzofuran-7-carboxylate]",18 µM,21 µM,
"Cc1ccn2ncc(C(=O)NCc3cc4cccc(C(=O)OCC(F)(F)F)c4o3)c2n1 [EXAMPLE 219, 2,2,2-Trifluoroethyl 2-((5-methylpyrazolo[1,5-a]pyrimidine-3-carboxamido)methyl)benzofuran-7-carboxylate]",10 µM,7.7 µM,

SMILES,"EC50 [1, 3]","EC50 [2, 4]",further results
"O=C(OCC(F)(F)F)c1cc(Cl)cc2cc(CNC(=O)c3cnn4cccnc34)oc12 [EXAMPLE 239, 2,2,2-Trifluoroethyl 5-chloro-2-((pyrazolo[1,5-a]pyrimidine-3-carboxamido)methyl)benzofuran-7-carboxylate]",0.39 µM,0.53 µM,
"COC(=O)c1cccc2cc(CNC(=O)c3cncnc3OC)oc12 [EXAMPLE 16, Methyl 2-((4-methoxypyrimidine-5-carboxamido)methyl)benzofuran-7-carboxylate]",9.3 µM,6.8 µM,
"Cc1cc(C(=O)OCC(F)(F)F)c2oc(Cn3ccc4ccncc4c3=O)cc2c1 [EXAMPLE 375, 2,2,2-Trifluoroethyl 5-methyl-2-((1-oxo-2,7-naphthyridin-2(1H)-yl)methyl) benzofuran-7-carboxylate]",2.3 µM,2.6 µM,
"O=C(OCC(F)(F)F)c1cc(F)cc2cc(CNC(=O)c3cnn4cccnc34)oc12 [EXAMPLE 231, 2,2,2-Trifluoroethyl 5-fluoro-2-((pyrazolo[1,5-a]pyrimidine-3-carboxamido)methyl)benzofuran-7-carboxylate]",0.65 µM,0.5 µM,
"CN1CCN(CCOC(=O)c2cc(Cl)cc3cc(CNC(=O)c4cnn5cccnc45)oc23)CC1 [EXAMPLE 257, 2-(4-Methylpiperazin-1-yl)ethyl 5-chloro-2-((pyrazolo[1,5-a]pyrimidine-3-carboxamido)methyl)benzofuran-7-carboxylate]",11 µM,28 µM,
"Cc1cc(C(=O)O)c2oc(C(C)NC(=O)c3cnn4cccnc34)cc2c1 (racemic) [EXAMPLE 186, 5-Methyl-2-(1-(pyrazolo[1,5-a]pyrimidine-3-carboxamido)ethyl)benzofuran-7-carboxylic acid]",,,"EC50 [1, 5]: > 100 µM; EC50 [2, 6]: 84 µM"
"COC(=O)c1cc(Br)cc2cc(CNC(=O)c3cnn4cccnc34)oc12 [Example 80, Methyl 5-bromo-2-((pyrazolo[1,5-a]pyrimidine-3-carboxamido)methyl)benzofuran-7-carboxylate]",1.1 µM,0.8 µM,
"COC(=O)c1cc(Cl)cc2cc(CNC(=O)c3cnn4cc(Cl)cnc34)oc12 [Example 57, Methyl 5-chloro-2-((6-chloropyrazolo[1,5-a]pyrimidine-3-carboxamido)methyl) benzofuran-7-carboxylate]",,,"EC50 [1, 5]: 8.1 µM; EC50 [2, 6]: 9.5 µM"
"COC(=O)c1cc(C)cc2cc(Cn3cnc4ccncc4c3=O)oc12 [Example 86, Methyl 5-methyl-2-((4-oxopyrido[4,3-d]pyrimidin-3(4H)-yl)methyl)benzofuran-7-carboxylate]",1.8 µM,1.7 µM,
"COC(=O)c1cc(F)cc2cc(CN3Cc4ncncc4C3=O)oc12 [EXAMPLE 44, Methyl 5-fluoro-2-((5-oxo-5,7-dihydro-6H-pyrrolo[3,4-d]pyrimidin-6-yl)methyl)benzofuran-7-carboxylate]",13 µM,12 µM,
"CC(OC(=O)c1cc(F)cc2cc(Cn3cnc4ccncc4c3=O)oc12)C(F)(F)F (centres unmarked) [EXAMPLE 364, 1,1,1-Trifluoropropan-2-yl 5-fluoro-2-((4-oxopyrido[4,3-d]pyrimidin-3(4H)-yl)methyl)benzofuran-7-carboxylate]",,,"EC50 [1, 5]: 21 µM; EC50 [2, 6]: 35 µM"
"COC(=O)c1cc(C)cc2cc(CNC(=O)c3cnn4cccnc34)oc12 [Example 89, Methyl 5-methyl-2-((pyrazolo[1,5-a]pyrimidine-3-carboxamido)methyl)benzofuran-7-carboxylate]",0.19 µM,0.21 µM,
"CC(NC(=O)c1cnn2cccnc12)c1cc2cc(F)cc(C(=O)OCC(F)(F)F)c2o1 (single isomer, unassigned) [EXAMPLE 327, 2,2,2-Trifluoroethyl 5-fluoro-2-(1-(pyrazolo[1,5-a]pyrimidine-3-carboxamido)ethyl)benzofuran-7-carboxylate]",,,"EC50 [1, 5]: 79 µM; EC50 [2, 6]: 73 µM"
"CC(OC(=O)c1cc(Cl)cc2cc(CN3CCc4ccncc4C3=O)oc12)C(F)(F)F (centres unmarked) [EXAMPLE 338, 1,1,1-Trifluoropropan-2-yl 5-chloro-2-((1-oxo-3,4-dihydro-2,7-naphthyridin-2(1H)-yl)methyl)benzofuran-7-carboxylate]",,,"EC50 [1, 5]: 48 µM; EC50 [2, 6]: 46 µM"
"O=C(OCC1CC1)c1cccc2cc(CN3CCc4ccncc4C3=O)oc12 [EXAMPLE 354, Cyclopropylmethyl 2-((1-oxo-3,4-dihydro-2,7-naphthyridin-2(1H)-yl)methyl)benzofuran-7-carboxylate]",70 µM,46 µM,
